{"source": "patent US7902373B2", "about": "(Pfizer Inc, priority 2006, dated 2011)"}
{"target": "human recombinant H-PGDS (Homo sapiens, UniProt O60760)", "sequence (O60760 whole entry)": "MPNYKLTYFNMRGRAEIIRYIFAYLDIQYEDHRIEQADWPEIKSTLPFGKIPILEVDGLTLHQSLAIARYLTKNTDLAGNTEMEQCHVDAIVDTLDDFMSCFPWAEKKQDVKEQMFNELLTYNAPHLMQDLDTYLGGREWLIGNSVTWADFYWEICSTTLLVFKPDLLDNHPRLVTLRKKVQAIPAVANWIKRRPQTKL", "assay": "Fluorescence intensity h-PGDS TBA enzyme assay", "type": "biochemical", "settings": "Examples up to 622 (and 3a, 3b)", "units": {"IC50": "nM"}}
{"compound": "O=C(NC1CCN(c2ncccc2C(F)(F)F)CC1)c1ccc(-c2cccc(F)c2)nc1", "note": "[Example 135, 6-(3-Fluorophenyl)-N-{1-[3-(trifluoromethyl)pyridin-2-yl]piperidin-4-yl}nicotinamide]", "IC50": 1.47}
{"compound": "COc1ccc(CN2CCC(NC(=O)c3ccc(-c4cccc(F)c4)nc3)CC2)cc1F", "note": "[Example 247, N-[1-(3-Fluoro-4-methoxybenzyl)piperidin-4-yl]-6-(3-fluorophenyl)nicotinamide]", "IC50": 0.653}
{"compound": "O=C(NC1CCN(c2ccc(C(=O)NCCN3CCNC3=O)nn2)CC1)c1ccc(-c2cccc(F)c2)nc1", "note": "[Example 164, 6-[4-({[6-(3-Fluorophenyl)pyridin-3-yl]carbonyl}amino)piperidin-1-yl]-N-[2-(2-oxoimidazolidin-1-yl)ethyl]pyridazine-3-carboxamide]", "IC50": 0.422}
{"compound": "O=C(NC1CCN(C2CNC2)CC1)c1ccc(-c2cccc(F)c2)nc1", "note": "[Example 552, N-(1-Azetidin-3-ylpiperidin-4-yl)-6-(3-fluorophenyl)nicotinamide]", "IC50": 2.37}
{"compound": "CN(C)CCCOc1cccc(CN2CCC(NC(=O)c3ccc(-c4cccc(F)c4)nc3)CC2)c1", "note": "[Example 417, N-(1-{3-[3-(Dimethylamino)propoxy]benzyl}piperidin-4-yl)-6-(3-fluorophenyl)nicotinamide]", "IC50": 1.1}
{"compound": "CC(C)(C)OC(=O)N1CCC(CN2CCC(NC(=O)c3ccc(-c4cccc(F)c4)nc3)CC2)C1", "note": "(centres unmarked) [Example 345, tert-Butyl 3-{[4-({[6-(3-fluorophenyl)pyridin-3-yl]carbonyl}amino)piperidin-1-yl]methyl}pyrrolidine-1-carboxylate]", "IC50": 0.508}
{"compound": "CC(C)Oc1ccc(CN2CCC(NC(=O)c3ccc(-c4cccc(F)c4)nc3)CC2)cc1", "note": "[Example 217, 6-(3-Fluorophenyl)-N-[1-(4-isopropoxybenzyl)piperidin-4-yl]nicotinamide]", "IC50": 1.51}
{"compound": "O=C(NC1CCN(Cc2cc(Br)ccc2O)CC1)c1ccc(-c2cccc(F)c2)nc1", "note": "[Example 223, N-[1-(5-Bromo-2-hydroxybenzyl)piperidin-4-yl]-6-(3-fluorophenyl)nicotinamide]", "IC50": 0.928}
{"compound": "COc1ccc(-c2c(CN3CCC(NC(=O)c4ccc(-c5cccc(F)c5)nc4)CC3)cnn2C)cc1", "note": "[Example 499, 6-(3-Fluorophenyl)-N-(1-{[5-(4-methoxyphenyl)-1-methyl-1H-pyrazol-4-yl]methyl}piperidin-4-yl)nicotinamide]", "IC50": 1.64}
{"compound": "COc1ccc(C(C)N2CCC(NC(=O)c3ccc(-c4cccc(F)c4)nc3)CC2)cc1OC", "note": "(centres unmarked) [Example 536, N-{1-[1-(3,4-Dimethoxyphenyl)ethyl]piperidin-4-yl}-6-(3-fluorophenyl)nicotinamide]", "IC50": 1.75}
{"compound": "NC(=O)CCN1CCC(N2CCC(NC(=O)c3ccc(-c4cccc(F)c4)nc3)CC2)CCC1=O", "note": "(centres unmarked) [Example 557, N-{1-[1-(3-Amino-3-oxopropyl)-7-oxoazepan-4-yl]piperidin-4-yl}-6-(3-fluorophenyl)nicotinamide]", "IC50": 6.56}
{"compound": "O=C(NC1CCN(c2ncc3ccc(F)cc3n2)CC1)c1ccc(-c2cccc(F)c2)nc1", "note": "[Example 174, 6-(3-Fluorophenyl)-N-[1-(7-fluoroquinazolin-2-yl)piperidin-4-yl]nicotinamide]", "IC50": 8.97}
{"compound": "O=C(NC1CCN(Cc2cnc(-c3ccccc3)s2)CC1)c1ccc(-c2cccc(F)c2)nc1", "note": "[Example 289, 6-(3-Fluorophenyl)-N-{1-[(2-phenyl-1,3-thiazol-5-yl)methyl]piperidin-4-yl}nicotinamide]", "IC50": 2.09}
{"compound": "Cc1cccc(-c2ccc(C(=O)NC3CCN(C)CC3)cn2)c1", "note": "[Example 22, 6-(3-Methylphenyl)-N-(1-methylpiperidin-4-yl)nicotinamide]", "IC50": 73.3}
{"compound": "O=C(NC1CCN(c2nccc(Nc3cc[nH]n3)n2)CC1)c1ccc(-c2cccc(F)c2)nc1", "note": "[Example 128, 6-(3-Fluorophenyl)-N-{1-[4-(1H-pyrazol-3-ylamino)pyrimidin-2-yl]piperidin-4-yl}nicotinamide]", "IC50": 0.687}
{"compound": "CC(CC1CC1)N1CCC(NC(=O)c2ccc(-c3cccc(F)c3)nc2)CC1", "note": "(centres unmarked) [Example 527, N-[1-(2-Cyclopropyl-1-methylethyl)piperidin-4-yl]-6-(3-fluorophenyl)nicotinamide]", "IC50": 2.84}
{"compound": "O=C(NC1CCN(C2CCOCC2)CC1)c1ccc(-c2cccc(F)c2)nc1", "note": "[Example 547, 6-(3-Fluorophenyl)-N-[1-(tetrahydro-2H-pyran-4-yl)piperidin-4-yl]nicotinamide]", "IC50": 1.14}
{"compound": "O=C(NC1CCN(Cc2cnn3c2CCCC3)CC1)c1ccc(-c2cccc(F)c2)nc1", "note": "[Example 386, 6-(3-Fluorophenyl)-N-[1-(4,5,6,7-tetrahydropyrazolo[1,5-a]pyridin-3-ylmethyl)piperidin-4-yl]nicotinamide]", "IC50": 1.2}
{"compound": "CCCC(=O)N1CCC(NC(=O)c2ccc(-c3cccc(F)c3)nc2)CC1", "note": "[Example 31, N-(1-Butyrylpiperidin-4-yl)-6-(3-fluorophenyl)nicotinamide]", "IC50": 19.9}
{"compound": "NC(=O)c1cccnc1N1CCC(NC(=O)c2ccc(-c3cccc(F)c3)nc2)CC1", "note": "[Example 64, N-{1-[3-(Aminocarbonyl)pyridin-2-yl]piperidin-4-yl}-6-(3-fluorophenyl)nicotinamide]", "IC50": 0.246}
{"compound": "Cc1ccc(C#N)c(N2CC(NC(=O)c3ccc(-c4cccc(F)c4)nc3)C2)n1", "note": "[Example 607, N-[1-(3-Cyano-6-methylpyridin-2-yl)azetidin-3-yl]-6-(3-fluorophenyl)nicotinamide]", "IC50": 4.44}
{"compound": "COc1ccc(CCCN2CCC(NC(=O)c3ccc(-c4cccc(F)c4)nc3)CC2)cc1", "note": "[Example 322, 6-(3-Fluorophenyl)-N-{1-[3-(4-methoxyphenyl)propyl]piperidin-4-yl}nicotinamide]", "IC50": 0.748}
{"compound": "O=C(NC1CCN(Cc2cnn(-c3ccc(F)cc3)c2)CC1)c1ccc(-c2cccc(F)c2)nc1", "note": "[Example 275, 6-(3-Fluorophenyl)-N-(1-{[1-(4-fluorophenyl)-1H-pyrazol-4-yl]methyl}piperidin-4-yl)nicotinamide]", "IC50": 5.49}
{"compound": "O=C(NC1CCN(CC(F)(F)F)CC1)c1ccc(-c2ccccc2)nc1", "note": "[Example 1, 6-Phenyl-N-(1-(2,2,2-trifluoroethyl)piperidin-4-yl)nicotinamide]", "IC50": 0.204}
{"compound": "O=C(NC1CCN(c2ncccc2C(=O)N2CCCC2)CC1)c1ccc(-c2cccc(F)c2)nc1", "note": "[Example 165, 6-(3-Fluorophenyl)-N-{1-[3-(pyrrolidin-1-ylcarbonyl)pyridin-2-yl]piperidin-4-yl}nicotinamide]", "IC50": 1.16}
{"compound": "CCCn1nccc1CN1CCC(NC(=O)c2ccc(-c3cccc(F)c3)nc2)CC1", "note": "[Example 517, 6-(3-Fluorophenyl)-N-{1-[(1-propyl-1H-pyrazol-5-yl)methyl]piperidin-4-yl}nicotinamide]", "IC50": 0.41}
{"compound": "O=C(NC1CCN(Cc2ccc3c(n2)NCCC3)CC1)c1ccc(-c2cccc(F)c2)nc1", "note": "[Example 465, 6-(3-Fluorophenyl)-N-[1-(5,6,7,8-tetrahydro-18-naphthyridin-2-ylmethyl)piperidin-4-yl]nicotinamide]", "IC50": 0.881}
{"compound": "O=C(NC1CCN(Cc2cn3ccccc3n2)CC1)c1ccc(-c2cccc(F)c2)nc1", "note": "[Example 406, 6-(3-Fluorophenyl)-N-[1-(imidazo[1,2-a]pyridin-2-ylmethyl)piperidin-4-yl]nicotinamide]", "IC50": 2.36}
{"compound": "O=C(NC1CCN(Cc2cccc(-c3cnccn3)c2)CC1)c1ccc(-c2cccc(F)c2)nc1", "note": "[Example 198, 6-(3-Fluorophenyl)-N-[1-(3-pyrazin-2-ylbenzyl)piperidin-4-yl]nicotinamide]", "IC50": 1.04}
